Data set [1] is described as follows: Hepatotoxicity in Balb/c mouse infected with Trypanosoma cruzi MHOM/Pe/2011/Arequipa DTU 5 trypomastigotes assessed as increase in total bilirubin level at 20 mg/kg, po once daily for 5 consecutive days starting from day 10 post infection measured on day 16 post infection relative to control. The following applies: in vivo. Type of data set: toxicity, organism-based.

A short description of data set [2]: Nephrotoxicity in Balb/c mouse infected with Trypanosoma cruzi MHOM/Pe/2011/Arequipa DTU 5 trypomastigotes assessed as decrease in serum uric acid level at 20 mg/kg, po once daily for 5 consecutive days starting from day 10 post infection measured on day 16 post infection relative to control. As to conditions: in vivo. Also noted: scale not given: the % may be the effect or the level left. Type of data set: toxicity, organism-based.

Data set [3] deals with Trypanosoma cruzi. The data set can be described thus: Antitrypanosomal activity against Trypanosoma cruzi MHOM/Pe/2011/Arequipa DTU 5 trypomastigotes infected in Balb/c mouse assessed as parasite-free bone marrow at 20 mg/kg, po pretreated once daily for 5 consecutive days starting from day 75 post infection followed by cyclophosphamide-induced immunosuppression on day 100 post infection every 4 days for a maximum of 3 doses measured on day 127 post infection by PCR method. It counts as functional.

The nature of data set [4]: Cardiotoxicity in Balb/c mouse infected with Trypanosoma cruzi MHOM/Pe/2011/Arequipa DTU 5 trypomastigotes assessed as change in ratio of creatine kinase in muscle to brain at 20 mg/kg, po once daily for 5 consecutive days starting from day 10 post infection measured on day 127 post infection by biochemical analysis (reference value: 496 U/L). It counts as toxicity, organism-based. As to conditions: in vivo.

A short description of data set [5]: Hepatotoxicity in Balb/c mouse infected with Trypanosoma cruzi MHOM/Pe/2011/Arequipa DTU 5 trypomastigotes assessed as increase in ratio of serum AST to GOT level at 20 mg/kg, po once daily for 5 consecutive days starting from day 10 post infection measured on day 127 post infection by biochemical analysis relative to control. It counts as toxicity, organism-based. The following applies: in vivo.

Data set [6] deals with Trypanosoma cruzi. The data set can be described thus: Antitrypanosomal activity against Trypanosoma cruzi MHOM/Pe/2011/Arequipa DTU 5 trypomastigotes infected in Balb/c mouse assessed as reduction in splenomegaly at 20 mg/kg, po once daily for 5 consecutive days starting from day 75 post infection measured on day 127 post infection. Type of data set: functional, organism-based.

Data set [7] can be described thus: Cardiotoxicity in Balb/c mouse infected with Trypanosoma cruzi MHOM/Pe/2011/Arequipa DTU 5 trypomastigotes assessed as change in serum LDH level at 20 mg/kg, po once daily for 5 consecutive days starting from day 10 post infection measured on day 127 post infection by biochemical analysis (reference value: 2761 U/L). The following applies: in vivo. Type of data set: toxicity, organism-based.

Data set [8] is described as follows: Nephrotoxicity in Balb/c mouse infected with Trypanosoma cruzi MHOM/Pe/2011/Arequipa DTU 5 trypomastigotes assessed as decrease in serum urea level at 20 mg/kg, po once daily for 5 consecutive days starting from day 75 post infection measured on day 81 post infection relative to control. It counts as toxicity, organism-based. Also noted: scale not given: the % may be the effect or the level left. The following applies: in vivo.

Data set [9] can be described thus: Hepatotoxicity in Balb/c mouse infected with Trypanosoma cruzi MHOM/Pe/2011/Arequipa DTU 5 trypomastigotes assessed as increase in alkaline phosphatase level at 20 mg/kg, po once daily for 5 consecutive days starting from day 10 post infection measured on day 16 post infection relative to control. Type of data set: toxicity, organism-based. As to conditions: in vivo.

A short description of data set [10]: Hepatotoxicity in Balb/c mouse infected with Trypanosoma cruzi MHOM/Pe/2011/Arequipa DTU 5 trypomastigotes assessed as increase in total bilirubin level at 20 mg/kg, po once daily for 5 consecutive days starting from day 10 post infection measured on day 127 post infection by biochemical analysis relative to control. It counts as toxicity, organism-based. As to conditions: in vivo.

Data set [11] relates to Trypanosoma cruzi. Put plainly: Antitrypanosomal activity against Trypanosoma cruzi MHOM/Pe/2011/Arequipa DTU 5 trypomastigotes infected in Balb/c mouse assessed as reduction in splenomegaly at 20 mg/kg, po once daily for 5 consecutive days starting from day 10 post infection measured on day 127 post infection. Type of data set: functional, organism-based.
Data set [12] can be described thus: Nephrotoxicity in Balb/c mouse infected with Trypanosoma cruzi MHOM/Pe/2011/Arequipa DTU 5 trypomastigotes assessed as decrease in serum urea level at 20 mg/kg, po once daily for 5 consecutive days starting from day 10 post infection measured on day 16 post infection relative to control. It counts as toxicity, organism-based. More on the design: scale not given: the % may be the effect or the level left. As to conditions: in vivo.

Data set [13] in a line: Toxicity in Balb/c mouse assessed as reduction in body mass at 20 mg/kg, po once daily for 5 consecutive days starting from day 10 post infection relative to control. It counts as organism-based. Also noted: scale not given: the % may be the effect or the level left. The following applies: in vivo.
Data set [14] can be described thus: Nephrotoxicity in Balb/c mouse infected with Trypanosoma cruzi MHOM/Pe/2011/Arequipa DTU 5 trypomastigotes assessed as decrease in serum uric acid level at 20 mg/kg, po once daily for 5 consecutive days starting from day 75 post infection measured on day 81 post infection relative to control. More on the design: scale not given: the % may be the effect or the level left. The following applies: in vivo. Type of data set: toxicity, organism-based.

Data set [15] is described as follows: Nephrotoxicity in Balb/c mouse infected with Trypanosoma cruzi MHOM/Pe/2011/Arequipa DTU 5 trypomastigotes assessed as decrease in serum urea level at 20 mg/kg, po once daily for 5 consecutive days starting from day 75 post infection measured on day 127 post infection relative to control. It counts as toxicity, organism-based. Also noted: scale not given: the % may be the effect or the level left. The following applies: in vivo.

Data set [16] relates to Trypanosoma cruzi. Put plainly: Induction of […] Trypanosoma cruzi MHOM/Pe/2011/Arequipa DTU 5 epimastigotes assessed as inhibition of DNA and RNA levels at IC25 after 72 hrs by acridine orange staining based flow cytometry relative to control. It counts as functional.
Data set [17] can be described thus: Hepatotoxicity in Balb/c mouse infected with Trypanosoma cruzi MHOM/Pe/2011/Arequipa DTU 5 trypomastigotes assessed as increase in ratio of serum AST to GOT level at 20 mg/kg, po once daily for 5 consecutive days starting from day 10 post infection measured on day 16 post infection relative to control. Type of data set: toxicity, organism-based. As to conditions: in vivo.

Data set [18] has as its system Trypanosoma cruzi. Put plainly: Antitrypanosomal activity against Trypanosoma cruzi MHOM/Pe/2011/Arequipa DTU 5 trypomastigotes infected in Balb/c mouse assessed as reduction in Ig-G level in serum at 20 mg/kg, po pretreated once daily for 5 consecutive days starting from day 75 post infection followed by cyclophosphamide-induced immunosuppression on day 100 post infection every 4 days for a maximum of 3 doses measured on day 127 post infection by ELISA. It counts as functional, organism-based.

Data set [19] has as its system Trypanosoma cruzi. The data set can be described thus: Trypanocidal activity against Trypanosoma cruzi TINF/CH/1956/Tulahuen DTU 6 amastigotes infected in African green monkey Vero cells after 72 hrs by Giemsa-staining based microscopic assay. It counts as functional, organism-based. As to conditions: TINF/CH/1956/Tulahuen DTU 6, Vero.
Data set [20] deals with Trypanosoma cruzi. Put plainly: Antitrypanosomal activity against Trypanosoma cruzi MHOM/Pe/2011/Arequipa DTU 5 epimastigotes assessed as effect on parasite glycolytic pathway by measuring decrease in succinate excretion at IC25 after 72 hrs by 1H NMR method relative to control. Type of data set: functional. More on the design: scale not given: the % may be the effect or the level left.

A short description of data set [21]: Cardiotoxicity in Balb/c mouse infected with Trypanosoma cruzi MHOM/Pe/2011/Arequipa DTU 5 trypomastigotes assessed as change in ratio of creatine kinase in muscle to brain at 20 mg/kg, po once daily for 5 consecutive days starting from day 75 post infection measured on day 127 post infection (reference value: 538 U/L). It counts as toxicity, organism-based. As to conditions: in vivo.

Data set [22] concerns Trypanosoma cruzi. The data set can be described thus: Antitrypanosomal activity against Trypanosoma cruzi MHOM/Pe/2011/Arequipa DTU 5 epimastigotes assessed as change in mitochondrial membrane potential at IC25 after 72 hrs by Rho123 staining based flow cytometry relative to control. Type of data set: functional.
Data set [23] is described as follows: Nephrotoxicity in Balb/c mouse infected with Trypanosoma cruzi MHOM/Pe/2011/Arequipa DTU 5 trypomastigotes assessed as change in serum urea level at 20 mg/kg, po once daily for 5 consecutive days starting from day 10 post infection measured on day 127 post infection (reference value: 31 mg/dl). It counts as toxicity, organism-based. As to conditions: in vivo.

Data set [24] in a line: Nephrotoxicity in Balb/c mouse infected with Trypanosoma cruzi MHOM/Pe/2011/Arequipa DTU 5 trypomastigotes assessed as serum uric acid level at 20 mg/kg, po once daily for 5 consecutive days starting from day 10 post infection measured on day 127 post infection (reference value: 4 mg/dl). Type of data set: toxicity, organism-based. The following applies: in vivo.

Here are results for 3 compounds from ChEMBL document CHEMBL4411300 (Eur J Med Chem, 2019).

The source made the active and inactive calls. The rule behind the calls is not given here.

As to `Cl.Cl.Cl.NCCN(CCN)CCNCc1ccc2c(c1)Cc1ccccc1-2`, the Activity result in data set [1] is given as “<= 30%”; in [2], “<= 10%”; with Trypanosoma cruzi [3] it was 5.9%; in data set [4], 496 U/L; in data set [5], “<= 30%”; in data set [7], 2761 U/L. The Activity entry is recorded as “<= 10%” in data set [8]; “<= 20%” in data set [9]; “<= 10%” in [10]; “<= 10%” in data set [12]; < 10% in data set [13]; “<= 10%” in data set [14]. Moreover, the Activity result is “<= 10%” in data set [15]; > 40% in [17]; 34% in the data set with Trypanosoma cruzi [20]; 538 U/L in data set [21]; 7.6% in the data set with Trypanosoma cruzi [22]; 34 mg/dL in data set [23]. For the same compound, the Activity in data set [24] was found to be 4 mg/dL. In addition, the result in the data set on Trypanosoma cruzi [6], in the data set on Trypanosoma cruzi [11] and in the data set on Trypanosoma cruzi [18] was Active. For the same compound, the “inhibition (INH)” value in the data set on Trypanosoma cruzi [16] is on record as 18.3%. Further, the half-maximal inhibitory concentration (IC50) with Trypanosoma cruzi [19] amounted to 15.1 µM.
As for `O=C(Cn1ccnc1[N+](=O)[O-])NCc1ccccc1` [BENZNIDAZOLE], the Activity result is reported as “<= 20%” in [1]; “<= 10%” in data set [2]; 75% with Trypanosoma cruzi [3]; 496 U/L in [4]; > 40% in data set [5]; 2761 U/L in data set [7]. For the same compound, the Activity result in data set [8] is on record as “<= 10%”; in [9], “<= 20%”; in data set [10], “<= 10%”; in [12] it was “<= 10%”; in [14], “<= 10%”; in data set [15], “<= 10%”. Also, the Activity in [17] was > 40%; in data set [21], 538 U/L; in the data set with Trypanosoma cruzi [22], -35.4%; in [24], 4 mg/dL. The result in the data set with Trypanosoma cruzi [6] and in the data set with Trypanosoma cruzi [11] was Active. The “inhibition (INH)” value with Trypanosoma cruzi [16] is given as 22.4%.
`Cl.Cl.Cl.Cl.Cl.Cl.c1ccc2nc(CNCCN(CCNCc3ccc4ccccc4n3)CCNCc3ccc4ccccc4n3)ccc2c1`: the Activity entry in data set [1] was “<= 30%”; in data set [2], “<= 10%”; in data set [4] it was 496 U/L; in data set [5], “<= 10%”; in [7], 2761 U/L; in data set [8] it was “<= 10%”. The Activity entry is recorded as “<= 10%” in data set [9]; “<= 10%” in [10]; “<= 10%” in [12]; < 10% in data set [13]; “<= 10%” in data set [14]; “<= 10%” in data set [15]. Besides, the Activity is 49% with Trypanosoma cruzi [20]; 538 U/L in data set [21]; -73.6% in the data set on Trypanosoma cruzi [22]; 34 mg/dL in data set [23]; 4 mg/dL in data set [24]. For the same compound, the outcome in the data set with Trypanosoma cruzi [6] and in the data set with Trypanosoma cruzi [11] was Active. Besides, the “inhibition (INH)” value in the data set on Trypanosoma cruzi [16] is recorded as 56.7%. Moreover, the result in the data set on Trypanosoma cruzi [18] was inactive. The half-inhibitory concentration (IC50) in the data set on Trypanosoma cruzi [19] was 2.3 µM.
